Results: the METLIN SMRT retention time set (Domingo-Almenara et al. 2019)

Assay: gradient 5% acetonitrile 3 min, to 50% in 2 min, to 85% in 15 min, held 3 min, 100 µL/min
Details: column: Zorbax Extend-C18 2.1 x 50 mm; eluents: water / acetonitrile, 0.1% formic acid
How it was run: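 Each retention time is based on an adduct peak selected computationally and verified by manual inspection. Measurements used HPLC–quadrupole time-of-flight mass spectrometry in positive and negative ionization mode on mixtures of ~100 pure standards. Chromatography ran on a Zorbax Extend-C18 column (2.1 × 50 mm, 1.8 μm) at 100 μL/min with water and acetonitrile, each containing 0.1% formic acid, and dead and dwell volumes of 40 μL and 900 μL.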

SMILES | RP-LC retention time [s]
CCc1noc(-c2ccc(SCC(=O)N3CCCCC3C)nc2)n1 (stereo unspecified) | 1200
CC(C)N1CCN(S(=O)(=O)c2cc(-c3nnc(C4CC4)o3)co2)CC1 | 599
Cc1nn(CC(=O)NCCN2CCN(Cc3ccccc3)CC2)c(=O)c2noc(C)c12 | 576
Clc1ccc(OCc2nnc3sc(-c4ccc5ccccc5n4)nn23)cc1 | 1210
NC(=O)C1CCN(C(=O)Cc2cc(-c3cccs3)on2)CC1 | 594
Cc1cccc(NS(=O)(=O)c2ccc3nncn3c2)c1 | 673
O=C1NCCCCCCN(Cc2ccc(C(F)(F)F)cc2)[C@H]2CCC[C@@H]12 | 700
C=C(C)[C@H]1O[C@H]2CC[C@@]3(C)[C@@](O)(CC[C@H]4[C@@H]5OC(C)(C)[C@H]6C[C@@H]7C(=C)Cc8c(Cl)cc9[nH]c(c5c9c8[C@@]76O)[C@@]43C)[C@]23O[C@@H]3[C@H]1O | 1180
Cc1ccc2c(c1)N(C(=O)N1CCC(C(=O)NCc3ccccc3)CC1)CCO2 | 820
COc1ccccc1-n1ccn(Cc2nc(-c3ccc(Cl)cc3)no2)c(=O)c1=O | 874
CC(C)CNC(=O)C1CCN(C(=O)Nc2ccc(NC(=O)NC3CCCC3)cc2)CC1 | 728
Cc1cc(C(=O)Nc2nnc(-c3ccn(C(C)C)n3)o2)no1 | 620
Cc1nn(CC(=O)NC2CCCCCC2)c(=O)c2c(C)n(-c3ccccc3)nc12 | 807
CCn1c(=O)c(N2CCCC(C(=O)NCCc3c[nH]c4ccc(C)cc34)C2)nc2ccccc21 (stereo unspecified) | 1030
CCN(CC)C(=O)CSc1c(C)cnc2c1c(=O)n(C)c(=O)n2C | 752
O=C(Nc1ccc(N2CCN(Cc3ccc(F)cc3)C2=O)nc1)C1CCC1 | 750
COc1cc2c(cc1/C=C/[N+](=O)[O-])OC(C)C2 (stereo unspecified) | 908
CCSc1nnc(-c2nn(C)c3c2CN(C(=O)c2ccc(C)cc2)CC3)n1C | 770
COc1ccccc1CC(=O)N1CCC2(CC1)N=C(c1ccccc1)NO2 | 791

SMILES | RP-LC retention time [s]
Nc1nc(N)c2nc(-c3cccc(O)c3)cnc2n1 | 599
Cc1ccc(NC(=O)N2CCC(n3cnnc3C3CC3)C2)cc1Cl (stereo unspecified) | 672
CCc1cc(C(=O)Cc2nc3ccccc3n2C)c(O)cc1O | 587
O=S(=O)(Cc1ccccc1)N1CCN(Cc2cccc(F)c2)C2(CCOCC2)C1 | 745
CCNc1nc(C)cc(N2CCN(S(=O)(=O)c3cccc(C)c3)CC2)n1 | 708
CCCN(CCC)C(=O)Cn1c(CO)nc2ccccc21 | 623
CC1CCN(c2cc(-c3noc(C(=O)N4CCCC4)n3)ccn2)CC1 | 764
CC(C)(C)NC(=O)NCC1CC(=O)N(c2ccc(Cl)cc2)C1 (stereo unspecified) | 706
Cc1cc(C)cc(-c2nnc(Cc3nc(-c4ccc(Cl)cc4)no3)o2)c1 | 1230
CCN1C(=O)COc2cc(-c3noc(C(=O)N4CCN(c5cccc(Cl)c5)CC4)n3)ccc21 | 1140
Cc1ccc(-n2nc(N3CCCC(C(=O)NCc4ccc5c(c4)OCO5)C3)ccc2=O)cc1Cl (stereo unspecified) | 875
COc1ccc2c(c1)c(N1CCCC1=O)c(C(=O)Nc1ccc(F)cc1)n2C | 952
CNC(=O)[C@@H]1C[C@H](Oc2ccccc2)CN1S(=O)(=O)N(C)C | 702
O=C(NCc1cccnc1)NC1CC(=O)N(c2ccc(Cl)cc2)C1 (stereo unspecified) | 546
COc1ccccc1NC(=O)N1C[C@H](c2nc(-c3ccccc3)no2)[C@@H](C)C1 | 883
CCCCNC(=O)C1CCCN(c2nnc3ccc(C(F)(F)F)cn23)C1 (stereo unspecified) | 751
O=C(c1cn(-c2ccc(S(=O)(=O)N3CCOCC3)cc2)cn1)N1CCN(c2ccccn2)CC1 | 598
O=C(c1ccco1)N1CCc2c(c(CO)nn2Cc2ccccc2)C1 | 657
Cc1ccc(-n2nc3c(N4CCCC(C(=O)NCCN5CCN(C)CC5)C4)nnc(C)c3c2C)cc1 (stereo unspecified) | 567

Results, then the molecule that gave them:

RP-LC retention time [s] | SMILES
807 | Cn1c(=O)c2c(nc(Oc3ccccc3)n2C)n(C)c1=O
667 | O=C(NC1CCN(c2cc(-c3cccs3)[nH]n2)C1)c1ccccn1 (stereo unspecified)
1160 | Cc1nc(-c2nnn(-c3ccc(Cl)cc3)c2C)sc1C(=O)NC1CCCCC1
547 | CCOC(=O)c1[nH]c(C)c(CCC(=O)NCCN2CCN(C)CC2)c1C
566 | CCc1nccn1Cc1noc(-c2ccco2)n1
962 | O=C(Cc1ccc(Cl)cc1)Nc1cnc(N2CCCCC2)nc1
1050 | CSc1cccc(NC(=O)Cn2c(-c3ccccc3)nc(C)cc2=O)c1
1340 | Cc1sc2ncnc(N3CCCC(C)C3)c2c1C(=O)Nc1ccc(C(F)(F)F)cc1 (stereo unspecified)
650 | CCOCCc1c(O)nc(SC)[nH]c1=O
810 | Cc1nc(-c2noc(-c3ccccc3)n2)cn1CC(=O)NCc1ccccc1
673 | Cc1cc(N2CCCCC2)n2nc(CN3CCN(c4ccccc4F)CC3)nc2n1
844 | O=C(NC1CCCC1)c1ccc(Cn2nc(N3CCN(c4ccccc4)CC3)ccc2=O)o1
705 | O=S(=O)(c1ccc2nc(N3CCN(C4CCCCC4)CC3)cnc2c1)N1CCCCC1
630 | CC(=O)N1c2ccc(S(=O)(=O)N3CCCC3)cc2CC1C(=O)NCCN1CCCCCC1 (stereo unspecified)
672 | COc1ccc(OC)c(NC(=O)CSc2ccc(N3CCCC(C(=O)NC4CC4)C3)nn2)c1 (stereo unspecified)
623 | CNC(=O)c1nc(C(C)(C)NC(=O)c2ccco2)nc2c1OCO2
751 | Nc1nccc(Oc2ccc(NC(=O)c3c[nH]cc(-c4ccc(F)cc4)c3=O)cc2F)c1Cl
864 | COc1ccc(C(=O)Nc2nc(-c3ccc4c(c3)NC(=O)C(C)O4)cs2)cc1OC (stereo unspecified)
688 | COCCC(=O)NC1CCN(c2ccc(C)c(C)c2)C1=O (stereo unspecified)

RP-LC retention time [s] | SMILES
753 | COc1ccc(Cl)cc1NC(=O)CSc1ccc(N2CCCC(C(=O)NC3CC3)C2)nn1 (stereo unspecified)
774 | CC1(C(=O)Nc2ccc(Cl)cc2F)Oc2cccnc2NC1=O (stereo unspecified)
544 | CCCNc1nccn(C(C)C)c1=O
806 | CCOC(=O)C(C)Sc1nnc(NC(=O)Cc2ccc(OC)cc2)s1 (stereo unspecified)
953 | O=C(O)c1ccc2c(c1)C(=O)N(Nc1ccccc1[N+](=O)[O-])C2=O
894 | Cc1cccc(CNC(=O)c2nnc(-c3ccc(S(=O)(=O)N(C)C)cc3)o2)c1
1020 | COc1cccc(-c2noc(C3CCCN3C(=O)Nc3ccccc3OC)n2)c1 (stereo unspecified)
731 | O=C(Nc1ccc2c(c1)N(C(=O)C1CCCO1)CC2)c1c(F)cccc1Cl (stereo unspecified)
694 | CCNC(=O)C1CCc2sc(C(=O)N3CCCCC3)cc2C1 (stereo unspecified)
667 | CCc1cccc(NC(=O)N2CCC(n3cnnc3C3CC3)C2)c1 (stereo unspecified)
644 | CCN1CCN(CCNC(=O)c2cc(-c3ccc(Cl)cc3)cn2C)CC1
600 | CC(=O)Nc1cc(C(=O)NC2CCCC2)c2ccc(C)nc2c1
616 | c1ccn(CCc2ccncc2)c1
687 | CCc1ccc(S(=O)(=O)c2ccccc2)cc1S(=O)(=O)NCCCN(C)C
580 | O=C(Nc1ccc(OCC(=O)N2CCN(c3ccccn3)CC2)nc1)C1CC1
924 | CCC1(O)CCC12CCN(C(=O)CCC1CCCC1)CC2 (stereo unspecified)
629 | COc1ccc(CNC(=O)CN2CCc3[nH]c4c(C)cc(C)cc4c(=O)c3C2)cc1
852 | O=C(c1ccc2c(c1)CCCN2S(=O)(=O)c1ccccc1)N1CCCC1
600 | COc1ccc(Nc2c(C(=O)N3CCCC3)cnc3nc(C)ccc23)c(OC)c1
